Measured values reported in patent publication US12679832B2, “Compounds and their uses as CD38 inhibitors” (Nanjing Immunophage Biotech Co., Ltd., priority 2021, dated 2026).

Target: T1, hCD38 Enzyme (Homo sapiens, UniProt P28907)
T1 construct: purchased Sino Biological Inc 10818-H08H
T1 sequence (P28907 43-300 limits assumed): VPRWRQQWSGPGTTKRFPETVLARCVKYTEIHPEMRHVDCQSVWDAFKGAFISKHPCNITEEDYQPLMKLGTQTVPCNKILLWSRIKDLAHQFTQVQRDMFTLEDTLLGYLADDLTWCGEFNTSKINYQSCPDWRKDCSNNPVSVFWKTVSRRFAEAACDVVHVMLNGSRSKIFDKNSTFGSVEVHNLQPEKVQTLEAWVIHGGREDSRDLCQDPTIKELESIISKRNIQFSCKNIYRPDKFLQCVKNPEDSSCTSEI
Assay: CD38 hydrolase enzymatic assay
Format: biochemical
Conditions: rhCD38, ε-NAD substrate, 25° C., point reading time 20 mins; read-out: hCD38 Enzyme inhibition IC50

| SMILES | IC50 |
| --- | --- |
| CO[C@H]1CC[C@H](NC(=O)c2cc(C)cc(-n3ccnc3)n2)CC1 [compound 52, 6-(1H-imidazol-1-yl)-N-((1r,4r)-4-methoxycyclohexyl)-4-methylpicolinamide] | 55 nM |
| Cc1cncn1-c1cncc(C(=O)NC2CCCCC2)n1 [compound 79, N-cyclohexyl-6-(5-methyl-1H-imidazol-1-yl)pyrazine-2-carboxamide] | 2190 nM |
| CO[C@H]1CC[C@H](NC(=O)c2cc(N(C)C)nc(-n3ccnc3)n2)CC1 [compound 23, 6-(dimethylamino)-2-(1H-imidazol-1-yl)-N-((1r,4r)-4-methoxycyclohexyl)pyrimidine-4-carboxamide] | 45 nM |
| Nc1ncc(-n2ccnc2)nc1C(=O)NC1CCCCC1 [compound 42, 3-amino-N-cyclohexyl-6-(1H-imidazol-1-yl)pyrazine-2-carboxamide] | 11 nM |
| CO[C@H]1CC[C@H](NC(=O)c2ccc(C)c(-n3ccnc3)n2)CC1 [compound 76, 6-(1H-imidazol-1-yl)-N-((1r,4r)-4-methoxycyclohexyl)-5-methylpicolinamide] | > 10000 nM |
| O=C(Nc1cccc(F)c1)c1cc(N2CCOCC2)nc(-n2ccnc2)n1 [compound 114, N-(3-fluorophenyl)-2-(1H-imidazol-1-yl)-6-morpholinopyrimidine-4-carboxamide] | 5 nM |
| Cc1nccn1-c1cncc(C(=O)NC2CCCCC2)n1 [compound 80, N-cyclohexyl-6-(2-methyl-1H-imidazol-1-yl)pyrazine-2-carboxamide] | > 10000 nM |
| CO[C@H]1CC[C@H](NC(=O)c2cc(-c3ccnc(C(F)(F)F)c3)nc(-n3ccnc3)n2)CC1 [Compound 184] | 28 nM |

Results, then the compound that gave them:

| IC50 | SMILES |
| --- | --- |
| 6.8 nM | O=C(Nc1ccc(F)c(F)c1)c1cc(C(F)(F)F)nc(-n2ccnc2)n1 [compound 173, N-(3,4-difluorophenyl)-2-(1H-imidazol-1-yl)-6-(trifluoromethyl) pyrimidine-4-carboxamide] |
| 831 nM | CO[C@H]1CC[C@H](NC(=O)c2nc(-n3ccnc3)ncc2C(F)(F)F)CC1 [compound 161, 2-(1H-imidazol-1-yl)-N-((1r,4r)-4-methoxycyclohexyl)-5-(trifluoromethyl) pyrimidine-4-carboxamide] |
| 76 nM | CC1(C)CCC(NC(=O)c2cc(C(F)(F)F)nc(-n3ccnc3)n2)CC1 [compound 138, N-(4,4-dimethylcyclohexyl)-2-(1H-imidazol-1-yl)-6-(trifluoromethyl) pyrimidine-4-carboxamide] |
| > 10000 nM | CN(C(=O)c1cc(N2CCCCC2)nc(-n2ccnc2)n1)c1cccc(F)c1 [compound 117, N-(3-fluorophenyl)-2-(1H-imidazol-1-yl)-N-methyl-6-(piperidin-1-yl)pyrimidine-4-carboxamide] |
